Compound: CC(C)(C)c1cc(NC(=O)Nc2ccc(-c3cn4c(n3)sc3cc(OCCN5CCOCC5)ccc34)cc2)no1 [Quizartinib] + C[C@@H](Oc1cc(-c2cnn(C3CCNCC3)c2)cnc1N)c1c(Cl)ccc(F)c1Cl [Crizotinib] (partner 1 µM)
Assay: relative viability (nuclei count vs DMSO), 5 days (fraction); higher = more cells survive
Conditions: first compound 0.1 µM
Procedure, shortened: (§1)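 Relative viability is defined as nuclei in treated wells over nuclei in vehicle wells. Duplicate plates were run and medians reported. Lung cancer cell lines in 1536-well plates were dosed by pin tool one day after seeding, with one drug or with a fixed anchor-drug dose plus five library-drug doses (not always all listed) in √10 steps, and nuclei were counted after 5 days.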

Cell Line	relative viability
NCI-H1993	0.948
NCI-H2405	0.925
NCI-H3122	0.26
A-427	0.638
LOU-NH91	0.79
NCI-H596	0.761
NCI-H1666	0.974
NCI-H23	0.486
NCI-H838	0.368
NCI-H322M	0.997
NCI-H727	0.662
SW 1573	0.895
201T	1.05
HCC-44	0.682
NCI-H1755	0.791

Compound: CC(C)(C)c1cc(NC(=O)Nc2ccc(-c3cn4c(n3)sc3cc(OCCN5CCOCC5)ccc34)cc2)no1 [Quizartinib] + C[C@]1(O)C[C@@H](c2nc(-c3ccc4ccc(-c5ccccc5)nc4c3)c3c(N)nccn32)C1 [Linsitinib] (partner 1 µM)
Assay: as above
Conditions: first compound 0.001 µM
Procedure, shortened: as §1

Cell Line	relative viability
NCI-H1915	0.761
NCI-H2347	0.943
ABC-1	0.662
NCI-H1734	0.752
HCC-78	0.471
COR-L 105	0.704
HCC-15	0.799
HARA	0.585
NCI-H1975	0.964
NCI-H1944	0.865
NCI-H2126	0.712
EMC-BAC-2	0.712
SK-LU-1	0.941
NCI-H661	0.564
NCI-H358	0.592
CAL-12T	0.744
LK-2	0.479

Cell Line	relative viability
HOP-62	1.02
PC-14	0.922
NCI-H1993	0.739
NCI-H2405	0.85
NCI-H3122	1.04
A-427	1.04
LOU-NH91	0.899
NCI-H596	1.06
NCI-H1666	0.771
NCI-H838	0.919
NCI-H322M	0.798
NCI-H727	0.164
SW 1573	0.738
201T	1.06
HCC-44	0.639
NCI-H1755	0.611

Same assay, conditions: first compound 0.003162 µM

Cell Line	relative viability
NCI-H1915	1.03
NCI-H2347	0.956
ABC-1	0.732
NCI-H1734	0.871
HCC-78	0.4
COR-L 105	0.846
HCC-15	0.823
HARA	0.906
NCI-H1975	0.85
NCI-H1944	1.16
NCI-H2126	0.705
EMC-BAC-2	0.748
SK-LU-1	1.07
NCI-H661	0.544
NCI-H358	0.688
CAL-12T	0.771
LK-2	0.617

Cell Line	relative viability
HOP-62	0.933
PC-14	0.875
NCI-H1993	0.716
NCI-H2405	0.883
NCI-H3122	1.03
A-427	1.08
LOU-NH91	0.954
NCI-H596	0.985
NCI-H1666	0.753
NCI-H23	0.577
NCI-H838	0.912
NCI-H322M	1.01
SW 1573	0.691
201T	1.04
HCC-44	0.647
NCI-H1755	0.997

Same assay, conditions: first compound 0.01 µM

Cell Line	relative viability
NCI-H1915	1.11
NCI-H2347	0.969
ABC-1	0.702
NCI-H1734	0.901
HCC-78	0.486
COR-L 105	1.23
HCC-15	0.874
HARA	0.953
NCI-H1975	0.956
NCI-H1944	1.12
NCI-H2126	0.735
EMC-BAC-2	0.815
SK-LU-1	1.31
NCI-H661	0.433
NCI-H358	0.768
CAL-12T	0.976
LK-2	0.621

Cell Line	relative viability
HOP-62	0.822
PC-14	0.942
NCI-H1993	0.817
NCI-H2405	0.927
NCI-H3122	1.1
A-427	1.14
LOU-NH91	0.996
NCI-H596	1.06
NCI-H1666	0.868
NCI-H23	0.615
NCI-H838	0.991
NCI-H322M	1.02
NCI-H727	0.387
SW 1573	0.81
201T	0.969
HCC-44	0.695
NCI-H1755	0.963

Same assay, conditions: first compound 0.03162 µM

Cell Line	relative viability
NCI-H1915	1.08
NCI-H2347	0.908
ABC-1	0.675
NCI-H1734	0.855
HCC-78	0.451
COR-L 105	0.733
HCC-15	0.828
HARA	0.958
NCI-H1975	1
NCI-H1944	1.39
NCI-H2126	0.767
EMC-BAC-2	0.789
SK-LU-1	1.11
NCI-H661	0.58
CAL-12T	0.882
LK-2	0.523
HOP-62	0.913

Cell Line	relative viability
PC-14	0.986
NCI-H1993	0.757
NCI-H2405	0.909
NCI-H3122	1.05
A-427	1.04
LOU-NH91	0.825
NCI-H596	1.12
NCI-H1666	0.631
NCI-H23	0.555
NCI-H838	0.963
NCI-H322M	0.917
NCI-H727	0.309
SW 1573	0.642
201T	1.06
HCC-44	0.69
NCI-H1755	1

Same assay, conditions: first compound 0.1 µM

Cell Line	relative viability
NCI-H1915	1.15
NCI-H2347	1.07
ABC-1	0.722
NCI-H1734	0.842
HCC-78	0.514
COR-L 105	0.95
HCC-15	0.814
HARA	0.974
NCI-H1975	1.17
NCI-H1944	1.24
NCI-H2126	0.835
EMC-BAC-2	0.838
SK-LU-1	0.906
NCI-H661	0.737
NCI-H358	0.698
CAL-12T	0.986
LK-2	0.521

Cell Line	relative viability
HOP-62	1.07
PC-14	0.99
NCI-H1993	0.833
NCI-H2405	1.09
NCI-H3122	0.964
A-427	1.12
LOU-NH91	1.11
NCI-H596	1.03
NCI-H1666	0.865
NCI-H23	0.661
NCI-H838	0.576
NCI-H322M	0.92
NCI-H727	0.174
SW 1573	0.8
201T	1.11
HCC-44	0.632
NCI-H1755	0.99

Compound: COCC[n+]1c2c(n(Cc3cnccn3)c1C)C(=O)c1ccccc1C2=O [YM155] + COc1cccc2cc(-c3nc([C@H]4CC[C@H](C(=O)O)CC4)n4ncnc(N)c34)[nH]c12 [OSI-027] (partner 0.5 µM)
Assay: as above
Conditions: first compound 0.002 µM
Procedure, shortened: as §1

Cell Line	relative viability
NCI-H1915	0.585
NCI-H2347	0.371
ABC-1	0.491
NCI-H1734	0.599
HCC-78	0.361
COR-L 105	0.574
HCC-15	0.693
HARA	0.495
NCI-H1975	0.596
NCI-H1944	0.364
NCI-H2126	0.645
EMC-BAC-2	0.388
SK-LU-1	0.358
NCI-H661	0.703
NCI-H358	0.684
CAL-12T	0.657
LK-2	0.187

Cell Line	relative viability
HOP-62	0.807
PC-14	0.788
NCI-H1993	0.563
NCI-H2405	0.625
NCI-H3122	0.995
A-427	0.478
LOU-NH91	0.689
NCI-H596	0.735
NCI-H1666	0.767
NCI-H23	0.498
NCI-H838	0.361
NCI-H322M	0.58
NCI-H727	0.473
SW 1573	0.549
201T	0.629
HCC-44	0.45
NCI-H1755	0.716

Same assay, conditions: first compound 0.006325 µM

Cell Line	relative viability
NCI-H1915	0.593
NCI-H2347	0.504
ABC-1	0.477
NCI-H1734	0.586
HCC-78	0.379
COR-L 105	0.694
HCC-15	0.758
HARA	0.51
NCI-H1975	0.742
NCI-H1944	0.381
NCI-H2126	0.714
EMC-BAC-2	0.364
SK-LU-1	0.316
NCI-H661	0.722
NCI-H358	0.981
CAL-12T	0.619
LK-2	0.21

Cell Line	relative viability
HOP-62	0.847
PC-14	0.901
NCI-H1993	0.569
NCI-H2405	0.613
NCI-H3122	1
A-427	0.562
LOU-NH91	0.751
NCI-H596	0.806
NCI-H1666	0.911
NCI-H23	0.66
NCI-H838	0.406
NCI-H322M	0.525
NCI-H727	0.612
SW 1573	0.705
201T	0.696
HCC-44	0.608
NCI-H1755	0.753

Same assay, conditions: first compound 0.02 µM

Cell Line	relative viability
NCI-H1915	0.613
NCI-H2347	0.421
ABC-1	0.282
NCI-H1734	0.616
HCC-78	0.385
COR-L 105	0.762
HCC-15	0.721
HARA	0.792
NCI-H1975	0.67
NCI-H1944	0.445
NCI-H2126	0.761
EMC-BAC-2	0.374
SK-LU-1	0.396
NCI-H661	0.708
NCI-H358	0.887
CAL-12T	0.746
LK-2	0.214

Cell Line	relative viability
HOP-62	0.899
PC-14	0.829
NCI-H1993	0.583
NCI-H2405	0.616
NCI-H3122	1.05
A-427	0.597
LOU-NH91	0.757
NCI-H596	0.743
NCI-H1666	0.859
NCI-H23	0.599
NCI-H838	0.421
NCI-H322M	0.533
NCI-H727	0.703
SW 1573	0.406
201T	0.751
HCC-44	0.58
NCI-H1755	0.747

Same assay, conditions: first compound 0.06325 µM

Cell Line	relative viability
NCI-H1915	0.574
NCI-H2347	0.421
ABC-1	0.154
NCI-H1734	0.684
HCC-78	0.383
COR-L 105	0.54
HCC-15	0.534
HARA	0.505
NCI-H1975	0.541
NCI-H1944	0.485
NCI-H2126	0.727
EMC-BAC-2	0.382
SK-LU-1	0.348
NCI-H661	0.308
NCI-H358	0.552
CAL-12T	0.529
LK-2	0.201

Cell Line	relative viability
HOP-62	0.864
PC-14	0.371
NCI-H1993	0.522
NCI-H2405	0.465
NCI-H3122	0.715
A-427	0.458
LOU-NH91	0.762
NCI-H596	0.85
NCI-H1666	0.841
NCI-H23	0.522
NCI-H838	0.438
NCI-H322M	0.581
NCI-H727	0.595
SW 1573	0.0803
201T	0.754
HCC-44	0.304
NCI-H1755	0.705
